Test results published in US5104866A, “Water-soluble antibiotic composition and water-soluble salts of cephem compounds” (Fujisawa Pharmaceutical Company, Ltd., priority 1987, dated 1992).
Structures can show the parent of a compound that is named as a salt.

What was measured:
[1] = Dissolution test: velocity of dissolution of test samples after addition of distilled water at ambient temperature; assay type: physicochemical; conditions: reference sample without carbonic acid salt
Description: As a comparison, the following reference samples were also tested.
The velosity of dissolution of the test samples were observed after addition of distilled water into said test samples at ambient temperature,respectively.

P. aeruginosa 26 = assay: In vitro antibacterial activity, two-fold agar-plate dilution method (MIC); assay type: cell-based; conditions: Pseudomonas aeruginosa, HI-agar, 10^6 viable cells per ml, 37° C., 20 hours, read-out: minimal inhibitory concentration (MIC)
Description: Sodium 7-[2-allyloxyimino-2-(5-carboxylatoamino-1,2,4-thiadiazol-3-yl)acetamido]- 3-(1-pyridinio)methyl-3-cephem-4-carboxylate (syn isomer).
In vitro antibacterial activity was determined by the two-fold agar-plate dilution method as described below.

| Maximum concentration of this sample dissolved in water [1] | MIC (P. aeruginosa 26) [µg/mL] | Compound |
| --- | --- | --- |
| 2 % (w/v) |  | CO/N=C(\C(=O)NC1C(=O)N2C(C(=O)[O-])=C(C[n+]3ccccc3)CSC12)c1nsc(N)n1 (stereo not drawn) [Reference Sample (3), 7-[2-(5-amino-1,2,4-thiadiazol-3-yl)-2-methoxyiminoacetamido]-3-(1-pyridinio)methyl-3-cephem-4-carboxylate (syn isomer)] |
| 10 % (w/v) |  | CO/N=C(\C(=O)NC1C(=O)N2C(C(=O)[O-])=C(C[n+]3ccccc3)CSC12)c1nsc(N)n1 (stereo not drawn) [Reference Sample (4), 7-[2-(5-amino-1,2,4-thiadiazol-3-yl)-2-methoxyiminoacetamido]-3-(1-pyridinio)methyl-3-cephem-4-carboxylate sulfate (syn isomer)] |
|  | 0.39 | C=CCO/N=C(\C(=O)NC1C(=O)N2C(C(=O)[O-])=C(C[n+]3ccccc3)CSC12)c1nsc(NC(=O)O)n1 (stereo not drawn) [Test salt, Sodium 7-[2-allyloxyimino-2-(5-carboxylatoamino-1,2,4-thiadiazol-3-yl)acetamido]-3-(1-pyridinio)methyl-3-cephem-4-carboxylate (syn isomer)] |

Second part, the compound before the results:

| Compound | Maximum concentration of this sample dissolved in water [1] | MIC (P. aeruginosa 26) [µg/mL] |
| --- | --- | --- |
| C=CCO/N=C(\C(=O)NC1C(=O)N2C(C(=O)[O-])=C(C[n+]3ccccc3)CSC12)c1nsc(N)n1 (stereo not drawn) [Reference Sample (1), 7-[2-allyloxyimino-2-(5-amino-1,2,4-thiadiazol-3-yl)acetamido]-3-(1-pyridinio)methyl-3-cephem-4-carboxylate (syn isomer)] | 4.07 % (w/v) |  |
| C=CCO/N=C(\C(=O)NC1C(=O)N2C(C(=O)[O-])=C(C[n+]3ccccc3)CSC12)c1nsc(N)n1 (stereo not drawn) [Reference Sample (2), 7-[2-allyloxyimino-2-(5-amino-1,2,4-thiadiazol-3-yl)acetamido]-3-(1-pyridinio)methyl-3-cephem-4-carboxylate hydrochloride (syn isomer)] | 8.28 % (w/v) |  |
